Data published in patent publication US12486284B2, “Ubiquitin-specific protease inhibitor and preparation method therefor and use thereof” (CHASER THERAPEUTICS, INC., priority 2019, dated 2025).
Read-outs that look alike come from different tables or passages of the source.

What was measured:
USP28 = molecular target: T1, USP28 (Homo sapiens, UniProt Q96RU2); test: USP28 activity measured using ubiquitin-rhodamine 110 method; type: biochemical; settings: for IC50: purified USP28 4 nM, ubiquitin-rhodamine 110 125 nM, 30 min preincubation; for IC50(F)/IC50(E) USP28: ratio of IC50 of related 3-NH2 compound (F) to IC50 of 3-NHMe compound disclosed herein (E)
T1 construct: purchased R&D Systems
T1 sequence (Q96RU2 1-1077): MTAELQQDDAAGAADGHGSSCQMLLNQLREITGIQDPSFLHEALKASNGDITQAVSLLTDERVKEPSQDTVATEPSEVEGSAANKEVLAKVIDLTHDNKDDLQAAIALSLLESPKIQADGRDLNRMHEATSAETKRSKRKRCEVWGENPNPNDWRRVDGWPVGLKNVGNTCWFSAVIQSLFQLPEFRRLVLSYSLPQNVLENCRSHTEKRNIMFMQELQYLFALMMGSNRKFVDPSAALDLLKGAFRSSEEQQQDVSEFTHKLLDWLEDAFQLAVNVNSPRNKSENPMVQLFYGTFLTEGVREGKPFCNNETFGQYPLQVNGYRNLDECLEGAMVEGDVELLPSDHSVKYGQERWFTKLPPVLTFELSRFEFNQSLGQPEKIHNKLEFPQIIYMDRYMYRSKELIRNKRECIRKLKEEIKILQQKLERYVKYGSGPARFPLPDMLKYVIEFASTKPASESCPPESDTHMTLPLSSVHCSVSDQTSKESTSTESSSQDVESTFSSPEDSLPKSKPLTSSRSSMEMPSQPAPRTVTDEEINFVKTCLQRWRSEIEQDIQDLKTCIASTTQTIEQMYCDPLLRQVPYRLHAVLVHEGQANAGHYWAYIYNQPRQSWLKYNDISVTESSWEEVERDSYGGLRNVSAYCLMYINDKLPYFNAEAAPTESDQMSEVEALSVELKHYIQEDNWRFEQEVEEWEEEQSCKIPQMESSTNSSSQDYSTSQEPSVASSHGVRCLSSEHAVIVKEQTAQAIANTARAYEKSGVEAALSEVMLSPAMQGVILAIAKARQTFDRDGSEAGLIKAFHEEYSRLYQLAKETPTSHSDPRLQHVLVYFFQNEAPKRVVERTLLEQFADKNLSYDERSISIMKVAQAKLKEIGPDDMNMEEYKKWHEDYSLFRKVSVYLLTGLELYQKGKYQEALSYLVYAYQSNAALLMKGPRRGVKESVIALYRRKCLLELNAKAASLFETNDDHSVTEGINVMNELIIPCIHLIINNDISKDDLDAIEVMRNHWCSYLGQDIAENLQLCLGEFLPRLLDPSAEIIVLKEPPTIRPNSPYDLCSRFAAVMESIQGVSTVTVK
Procedure: USP28 activity was measured using ubiquitin-rhodamine 110 method.
(§1) Purified USP28 and the ubiquitin-rhodamine 110 substrate used for measuring DUBs activity were both from R&D Systems. Test compounds were first dissolved in DMSO to prepare a 10 mM stock solution, and then the stock solution was diluted with a buffer solution [containing 20 mM Tris-HCl (pH 8.0), 2 mM CaCl2), 3 mM BME, 0.01% Prionix, 0.01% Triton X-100] to the desired concentration (with DMSO content less than or equal to 0.5%). The dilution was mixed well with USP28 (final concentration 4 nM) in a 96-well plate and incubated at room temperature for 30 min, and then added with the substrate (ubiquitin-rhodamine 110) to 125 nM. The final volume of the whole reaction system was 20 μL. The released fluorescence (excitation wavelength 485 nm, emission wavelength 535 nm) was detected immediately on a microplate reader after the addition of the substrate. The inhibitory rate of the test compound against USP28 was calculated according to the following formula: Inhibition %=1−[(test compound+fluorescence value of substrate−fluorescence value of test compound (no substrate))/mean fluorescence value of DMSO control group−fluorescence value of test compound (no substrate)]
According to the inhibitory rates of the test compound against USP28 under different concentrations, IC50 was calculated.

USP25 = molecular target: T2, USP25 (Homo sapiens, UniProt Q9UHP3); test: USP25 activity measured using ubiquitin-rhodamine 110 method; type: biochemical; settings: for IC50: purified USP25 15 nM, ubiquitin-rhodamine 110 125 nM, 30 min preincubation; for IC50(F)/IC50(E) USP25: ratio of IC50 of related 3-NH2 compound (F) to IC50 of 3-NHMe compound disclosed herein (E)
T2 construct: purchased R&D Systems
T2 sequence (Q9UHP3 1-1055): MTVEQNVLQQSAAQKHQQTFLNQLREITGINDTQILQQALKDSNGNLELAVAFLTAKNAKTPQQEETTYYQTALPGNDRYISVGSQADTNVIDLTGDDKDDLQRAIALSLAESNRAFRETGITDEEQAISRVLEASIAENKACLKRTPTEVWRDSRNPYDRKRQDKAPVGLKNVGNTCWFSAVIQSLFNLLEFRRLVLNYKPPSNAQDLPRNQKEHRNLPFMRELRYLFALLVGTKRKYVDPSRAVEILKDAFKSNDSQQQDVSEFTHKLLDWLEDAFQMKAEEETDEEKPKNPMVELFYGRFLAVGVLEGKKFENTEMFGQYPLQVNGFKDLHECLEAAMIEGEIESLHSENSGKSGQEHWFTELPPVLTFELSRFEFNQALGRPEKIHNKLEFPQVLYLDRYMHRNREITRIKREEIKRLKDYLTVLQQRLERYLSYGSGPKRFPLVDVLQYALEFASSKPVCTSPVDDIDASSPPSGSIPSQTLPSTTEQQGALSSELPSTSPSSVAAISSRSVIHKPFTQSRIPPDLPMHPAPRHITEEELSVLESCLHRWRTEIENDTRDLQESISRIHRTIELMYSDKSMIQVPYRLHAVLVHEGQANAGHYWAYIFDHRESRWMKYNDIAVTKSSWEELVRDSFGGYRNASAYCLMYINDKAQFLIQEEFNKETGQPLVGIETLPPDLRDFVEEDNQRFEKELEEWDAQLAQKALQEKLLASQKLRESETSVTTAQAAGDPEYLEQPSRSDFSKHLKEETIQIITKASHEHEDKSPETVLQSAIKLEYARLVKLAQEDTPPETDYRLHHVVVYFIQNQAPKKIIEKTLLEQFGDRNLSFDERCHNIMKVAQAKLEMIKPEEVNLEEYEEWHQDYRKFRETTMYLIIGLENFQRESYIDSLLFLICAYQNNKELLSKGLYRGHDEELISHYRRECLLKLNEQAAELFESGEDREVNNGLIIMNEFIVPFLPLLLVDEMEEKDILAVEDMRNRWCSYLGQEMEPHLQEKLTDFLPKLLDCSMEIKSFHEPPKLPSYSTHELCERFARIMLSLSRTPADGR
Procedure: USP25 activity was measured using ubiquitin-rhodamine 110 method.
as §1, with “Purified USP25” for “Purified USP28”, “with USP25” for “with USP28”, “concentration 15” for “concentration 4”, “the substrate, and the” for “the substrate. The”, “against USP25” for “against USP28”
As in Example 11, according to the inhibitory rates of the test compound against USP25 under different concentrations, IC50 was calculated.

[1] = read-out: Inhibitory activity against USP28 (IC50)
[2] = read-out: Inhibitory activity against USP25 (IC50)
[3] = Inhibitory activity against USP28 (IC50)
[4] = Inhibitory activity against USP25 (IC50)

Structure (SMILES)	IC50 (USP28; [1]) [nM]	IC50 (USP25; [2]) [nM]	IC50(F)/IC50(E) USP28 (USP28)	IC50(F)/IC50(E) USP25 (USP25)	IC50 (USP28; [3]) [nM]	IC50 (USP25; [4]) [nM]
CNc1c(C(=O)NCCc2c[nH]c3ccccc23)sc2nc(C(F)(F)F)ccc12 [Compound I-54]	< 100	5000 to 10000	–	–	–	–
CNc1c(C(=O)N[C@H](COC)Cc2c[nH]c3ccccc23)sc2nc(C)ccc12 [Compound I-55]	1000 to 5000	> 10000	–	–	–	–
CNc1c(C(=O)NCCc2coc3ccccc23)sc2nc(C)ccc12 [Compound I-56]	100 to 1000	1000 to 5000	–	–	–	–
CNc1c(C(=O)NCCc2csc3ccccc23)sc2nc(C)ccc12 [Compound I-57]	< 100	5000 to 10000	–	–	–	–
CNc1c(C(=O)NCCc2ccc(OC)c(OC)c2)sc2nc(C)ccc12 [Compound I-58]	100 to 1000	> 10000	5.0	>8	–	–
CCc1nc2sc(C(=O)NCCc3ccc(OC)c(OC)c3)c(NC)c2c(C(F)(F)F)c1C [Compound I-59]	< 100	1000 to 5000	–	–	–	–
CNc1c(C(=O)NCCc2ccc(OC)c(OC)c2)sc2nc(C)cc(C)c12 [Compound I-60]	< 100	5000 to 10000	–	–	–	–
CNc1c(C(=O)N[C@@H](C)Cc2ccc(Br)cc2)sc2nc(C)ccc12 [Compound I-61]	1000 to 5000	> 10000	–	–	–	–
CNc1c(C(=O)N[C@H](C)Cc2ccc(Br)cc2)sc2nc(C)ccc12 [Compound I-62]	100 to 1000	> 10000	–	–	–	–
CNc1c(C(=O)N[C@@H](C)Cc2ccc(N3C[C@H]4CC[C@@H](C3)N4)cc2)sc2nc(C)ccc12 [Compound I-63]	100 to 1000	> 10000	–	–	–	–
CNc1c(C(=O)N[C@H](C)Cc2ccc(N3C[C@H]4CC[C@@H](C3)N4)cc2)sc2nc(C)ccc12 [Compound I-64]	–	100 to 1000	–	–	< 100	–
CNc1c(C(=O)N[C@H](COC)Cc2ccc(N3C[C@H]4CC[C@@H](C3)N4)cc2)sc2nc(C)ccc12 [Compound I-65]	100 to 1000	5000 to 10000	–	–	–	–
CNc1c(C(=O)N[C@@H](Cc2ccc(N3C[C@H]4CC[C@@H](C3)N4)cc2)C(F)(F)F)sc2nc(C)ccc12 [Compound I-66]	100 to 1000	100 to 1000	–	–	–	–
CNc1c(C(=O)NC[C@H](C)c2ccc(N3C[C@H]4CC[C@@H](C3)N4)cc2)sc2nc(C)ccc12 [Compound I-67]	100 to 1000	100 to 1000	–	–	–	–
CNc1c(C(=O)NC[C@@H](C)c2ccc(N3C[C@H]4CC[C@@H](C3)N4)cc2)sc2nc(C)ccc12 [Compound I-68]	100 to 1000	100 to 1000	–	–	–	–
CNc1c(C(=O)NC[C@@H](F)c2ccc(N3C[C@H]4CC[C@@H](C3)N4)cc2)sc2nc(C)ccc12 [Compound I-69]	–	100 to 1000	–	–	< 100	–
CNc1c(C(=O)NCCc2ccc(N3C[C@H]4CC[C@@H](C3)N4)cc2)sc2nccnc12 [Compound I-70]	1000 to 5000	> 10000	–	–	–	–
CNc1c(C(=O)NCCc2ccc(N3C[C@H]4CC[C@@H](C3)N4)cc2)sc2nc(C)cnc12 [Compound I-71]	–	5000 to 10000	–	–	< 100	–
CCc1cnc2c(NC)c(C(=O)NCCc3ccc(N4C[C@H]5CC[C@@H](C4)N5)cc3)sc2n1 [Compound I-72]	–	100 to 1000	–	–	< 100	–
CNc1c(C(=O)NCCc2ccc(N3CC4CCC(C3)N4)cc2)sc2nc(C(C)C)cnc12 [Compound I-73]	–	100 to 1000	–	–	< 100	–
CCc1nc2sc(C(=O)NCCc3ccc(N4C[C@H]5CC[C@@H](C4)N5)cc3)c(NC)c2nc1C [Compound I-74]	–	–	–	–	< 100	< 100
CNc1c(C(=O)NCCc2ccc(N3C[C@H]4CC[C@@H](C3)N4)c(Cl)c2)sc2nc(C)cnc12 [Compound I-75]	–	–	–	–	< 100	< 100
CNc1c(C(=O)NCCc2ccc(N3C[C@H]4CC[C@@H](C3)N4)c(F)c2)sc2nc(C)cnc12 [Compound I-76]	–	–	33.3	>20	< 100	< 100
CNc1c(C(=O)NCCc2ccc(N3C[C@H]4CC[C@@H](C3)N4)cc2F)sc2nc(C)cnc12 [Compound I-77]	–	–	–	–	< 100	< 100
CNc1c(C(=O)NCCc2cc(F)c(N3C[C@H]4CC[C@@H](C3)N4)cc2F)sc2nc(C)cnc12 [Compound I-78]	–	–	–	–	< 100	< 100
CNc1c(C(=O)NC[C@H](C)c2cc(F)c(N3C[C@H]4CC[C@@H](C3)N4)cc2F)sc2nc(C)cnc12 [Compound I-79]	–	100 to 1000	–	–	< 100	–
CNc1c(C(=O)NCCc2ccc(N3C[C@H]4CC[C@@H](C3)N4)cc2)sc2nc(C#N)ccc12 [Compound I-80]	1000 to 5000	1000 to 5000	–	–	–	–
CNc1c(C(=O)NCCc2ccc(N3C[C@H]4CC[C@@H](C3)N4)cc2F)sc2nc(Cl)cnc12 [Compound I-81]	1000 to 5000	> 10000	–	–	–	–
